Measurements published in patent US20060116390A1, “Hepatitis c virus inhibitors” (priority 2003, published 2006).
Like-named read-outs stand apart in the source and are kept apart here.

System: HCV proteins in Rep5.1 cells (replicon cell line)
Experiment: Inhibitory activity of HCV: cell-based ELISA in replicon cell line Rep5.1 (decrease of HCV proteins)
Set-up: species or system hepatitis C virus
Experimental: In order to, screen and evaluate the anti-HCV therapeutic agents in cell level, the following experiments are carried out using a replicon cell line, Rep5.1 [Lohmann, et al., Replication of subgenomic hepatitis C virus RNAs in a hepatoma cell line. Science 285:110-113 (1999)].
Rep5.1 cells, the replicon cell line, are cultured in DMEM-10 containing 500 μg/ml of G418. The Rep5.1 cells in log phase are suspended by trypsin treatment, and 5000 cells are distributed to each well of a 96-well plate. After 4 hours when the cells are attached to the plate, the serially diluted drug is added to each well. After 48 hours, a part of the treated cells are observed by microscope, and MTT assay is carried out to evaluate the drug toxicity. The cytotoxicity is estimated in percentage based on the control containing no drug. After 72 hours, the remaining cells are fixed by methanol/acetone (50/50, v/v), and the decrease of HCV proteins is measured by using HCV antibody. The extent of decrease is estimated in percentage based on the control containing no drug, and the concentration of drug at which 50% of proteins is decreased is determined to be IC50. The compounds showing activity via this procedure are validated by Western blotting. In order to find out whether the decrease of HCV protein is related to the decrease of replicon RNA, Rep5.1 cell is treated with some selected drugs for 72 hours, RNA is purified, dot blotted, and hybridized with isotope labelled nucleic acid to determine the amounts of actin mRNA and replicon RNA, and finally the amount of RNA is compared.
Plasma samples from 300 persons positive to the hepatitis C antibody test were screened by antibody diagnosis kit produced by LG life Sciences Ltd. (LG HCD3.0 TMB) to select 40 plasma samples having high titer. Replicon cell line and Huh-7 cell line each were cultured in a 96-well cell culture plate, fixed by methanol/acetone (1:1) mixture, and blocked by 3% skimmed milk. The 40 plasma sanples selected above were 100-fold diluted and aided thereto, and the bound antibodies were probed by anti-Human goat antibody (Sigma) to which Horse Radish Peroxidase is attached. As a result, 12 plasma samples having low specificity to Huh-7 cell line, but high specificity to replicon cell line were obtained. These plasma samples were used in the following cell-based ELISA.
Rep5.1 cells were cultured in DMEM-10 containing 500 μg/ml of G418. The Rep5.1 cells in log phase were suspended by trypsin treatment, and 5000 cells were distributed to each well of a 96-well pate. After 4 hours for which the cells were attached to the plate, the serially diluted drug was added to each well. After 72 hours, the cells were fixed by methanol/acetone (50/50, v/v), and the decrease of HCV proteins was measured by using HCV antibody obtained as above. The extent of decrease was estimated in percentage based on the control containing no drug, and the concentration of drug at which 50% of proteins was decreased was determined to be IC50.

[1] = Hepatitis C virus, 72 h, Rep5.1 cells, 72 hours with drug, concentration at which 50% of HCV proteins was decreased, Table 2, read-out: IC50
[2] = Hepatitis C virus, 72 h, Rep5.1 cells, 72 hours with drug, decrease of HCV proteins measured by HCV antibody, Table 1, read-out: Level (IC50 values classified)

SMILES | IC50 [1] [nM] | IC50 [2] [nM] | IC50 (Hepatitis C virus, 72 h) [nM] | IC50 (Hepatitis C virus, 72 h, read-out: Level (IC50 values classified)) [nM] | IC50 (Rep5.1 cells, 72 hours with drug, concentration at which 50% of HCV proteins was decreased, Table 2, read-out: IC50) [nM]
CC1=C(C(=O)OCc2cccc(OCc3ccccc3)c2)CNC(=S)N1 [Compound 50, 6-methyl-2-thioxo-1,2,3,4-tetrahydro-pyrimidine-5-carboxylic acid 3-benzyloxy-benzyl ester] | < 500 | < 1000 |  |  | 
COc1ccc(COC(=O)C2=C(C)NC(=S)NC2)cc1C [Compound 176, 6-methyl-2-thioxo-1,2,3,4-tetrahydro-pyrimidine-5-carboxylic acid 4-methoxy-3-methyl-benzyl ester] | 2700 | 1000 to 10000 |  |  | 
CC1=C(C(=O)OCCc2ccccc2Cl)C(CO)NC(=S)N1 (centres unmarked) [41″, 4-hydroxymethyl-6-methyl-2-thioxo-1,2,3,4-tetrahydro-pyrimidine-5-carboxylic acid 2-(2-chloro-phenyl)-ethyl ester] | 7200 | 1000 to 10000 |  |  | 
CC1=C(C(=O)OCc2ccc(C)c([N+](=O)[O-])c2)CNC(=S)N1 [Compound 136, 6-methyl-2-thioxo-1,2,3,4-tetrahydro-pyrimidine-5-carboxylic acid 3-nitro-4-methyl-benzyl ester] | 600 | < 1000 |  |  | 
CC1=C(C(=O)OCc2cc3c(C)nn(C)c3s2)CNC(=S)N1 [Compound 223, 6-methyl-2-thioxo-1,2,3,4-tetrahydro-pyrimidine-5-carboxylic acid 1,3-dimethyl-1H-thieno[2,3-c]pyrazol-5-ylmethyl ester] | 6000 | 1000 to 10000 |  |  | 
CC1=C(C(=O)OCCCCSc2nc3ccccc3s2)C(CO)NC(=S)N1 (centres unmarked) [70″, 4-hydroxymethyl-6-methyl-2-thioxo-1,2,3,4-tetrahydro-pyrimidine-5-carboxylic acid 4-(benzothiazol-2-ylsulfanyl)-butyl ester] | 400 | < 1000 |  |  | 
CC1=C(C(=O)OCCCCCCCCCC(=O)O)CNC(=S)N1 [20′, 6-methyl-2-thioxo-1,2,3,4-tetrahydro-pyrimidine-5-carboxylic acid 9-carboxy-nonyl ester] | 27000 | > 20000 |  |  | 
CC1=C(C(=O)OCCCCCc2ccccc2)C(CO)NC(=S)N1 (centres unmarked) [18″, 4-hydroxymethyl-6-methyl-2-thioxo-1,2,3,4-tetrahydro-pyrimidine-5-carboxylic acid 5-phenyl-pentyl ester] | < 400 | < 1000 |  |  | 
CC1=C(C(=O)OCC2CC3CCC2C3)CNC(=S)N1 (centres unmarked) [Compound 151, 6-methyl-2-thioxo-1,2,3,4-tetrahydro-pyrimidine-5-carboxylic acid bicyclo[2.2.1]hept-2-ylmethyl ester] |  |  | < 400 | < 1000 | 
COC(=O)C(C)(C)COC(=O)OCC1NC(=S)NC(C)=C1C(=O)OCCc1cccc(Cl)c1 (centres unmarked) [82″, 4-(2-methoxycarbonyl-2-methyl-propoxycarbonyloxymethyl)-6-methyl-2-thioxo-1,2,3,4-tetrahydro-pyrimidine-5-carboxylic acid 2-(3-chloro-phenyl)-ethyl ester] | 800 | < 1000 |  |  | 
CC1=C(C(=O)OCCc2c(F)cccc2Cl)C(CO)NC(=S)N1 (centres unmarked) [59″, 4-hydroxymethyl-6-methyl-2-thioxo-1,2,3,4-tetrahydro-pyrimidine-5-carboxylic acid 2-(2-chloro-6-fluoro-phenyl)-ethyl ester] | 2500 | 1000 to 10000 |  |  | 
CC1=C(C(=O)OCCc2ccsc2F)C(CF)NC(=S)N1 (centres unmarked) [1′, 4-fluoromethyl-6-methyl-2-thioxo-1,2,3,4-tetrahydro-pyrimidine-5-carboxylic acid 2-(2-fluoro-thiophen-3-yl)-ethyl ester] | 1800 | 1000 to 10000 |  |  | 
C=CCN(CC)c1ccc(CCOC(=O)C2=C(C)NC(=S)NC2CO)cc1[N+](=O)[O-] (centres unmarked) [97″, 4-Hydroxymethyl-6-methyl-2-thioxo-1,2,3,4-tetrahydro-pyrimidine-5-carboxylic acid 2-[4-(allyl-ethyl-amino)-3-nitro-phenyl]-ethyl ester] | 600 | < 1000 |  |  | 
CC1=C(C(=O)OCCc2cccc(OC(F)(F)F)c2)C(CO)NC(=S)N1 (centres unmarked) [75″, 4-hydroxymethyl-6-methyl-2-thioxo-1,2,3,4-tetrahydro-pyrimidine-5-carboxylic acid 2-(3-trifluoromethoxy-phenyl)-ethyl ester] | < 400 | < 1000 |  |  | 
CSCCCOC(=O)C1=C(C)NC(=S)NC1CO (centres unmarked) [29″, 4-hydroxymethyl-6-methyl-2-thioxo-1,2,3,4-tetrahydro-pyrimidine-5-carboxylic acid 3-methylsulfanyl-propyl ester] | > 100000 | > 20000 |  |  | 
CC1=C(C(=O)OCc2cc(Cl)ccc2[N+](=O)[O-])C(CF)NC(=S)N1 (centres unmarked) [78′, 4-fluoromethyl-6-methyl-2-thioxo-1,2,3,4-tetrahydro-pyrimidine-5-carboxylic acid 5-chloro-2-nitro-benzyl ester] | 11000 | 10000 to 20000 |  |  | 
CC1=C(C(=O)OCCc2ccc(Cl)s2)C(CO)NC(=S)N1 (centres unmarked) [1″, 4-hydroxymethyl-6-methyl-2-thioxo-1,2,3,4-tetrahydro-pyrimidine-5-carboxylic acid 2-(5-chloro-thiophen-2-yl)-ethyl ester] | 1600 | 1000 to 10000 |  |  | 
COc1ccc(COC(=O)C2=C(C)NC(=S)NC2)c(OC)c1C [Compound 137, 6-methyl-2-thioxo-1,2,3,4-tetrahydro-pyrimidine-5-carboxylic acid 2,4-dimethoxy-3-methyl-benzyl ester] | 10000 | 1000 to 10000 |  |  | 
CC1=C(C(=O)OC(C)Cc2ccsc2Br)C(CF)NC(=S)N1 (centres unmarked) [27′, 4-fluoromethyl-6-methyl-2-thioxo-1,2,3,4-tetrahydro-pyrimidine-5-carboxylic acid 2-(2-bromo-thiophen-3-yl)-1-methyl-ethyl ester] | < 400 | < 1000 |  |  | 
COc1ccccc1COC(=O)C1=C(C)NC(=S)NC1 [Compound 65, 6-methyl-2-thioxo-1,2,3,4-tetrahydro-pyrimidine-5-carboxylic acid 2-methoxy-benzyl ester] | 1000 | < 1000 |  |  | 
CCOCC#CCOC(=O)C1=C(C)NC(=S)NC1 [Compound 236, 6-methyl-2-thioxo-1,2,3,4-tetrahydro-pyrimidine-5-carboxylic acid 4-ethoxy-but-2-inyl ester] |  |  |  |  | 14000
CC1=C(C(=O)OCCc2ccsc2)C2(CCC2)NC(=S)N1 [7′, 8-methyl-6-thioxo-5,7-diaza-spiro[3,5]non-8-en-9-carboxylic acid 2-thiophen-3-yl-ethyl ester] | 8000 | 1000 to 10000 |  |  | 
COc1ccc(Cl)cc1CCOC(=O)C1=C(C)NC(=S)NC1CO (centres unmarked) [56″, 4-hydroxymethyl-6-methyl-2-thioxo-1,2,3,4-tetrahydro-pyrimidine-5-carboxylic acid 2-(5-chloro-2-methoxy-phenyl)-ethyl ester] | 600 | < 1000 |  |  | 
CC1=C(C(=O)OCCc2ccsc2)[C@@H](CF)NC(=S)N1 [25′, (S)-4-fluoromethyl-6-methyl-2-thioxo-1,2,3,4-tetrahydro-pyrimidine-5-carboxylic acid 2-thiophen-3-yl-ethyl ester] | 4900 | 1000 to 10000 |  |  | 
CC1=C(C(=O)OCCc2ccsc2)CNC(=S)N1 [Compound 208, 6-methyl-2-thioxo-1,2,3,4-tetrahydro-pyrimidine-5-carboxylic acid 2-thiophen-3-yl-ethyl ester] | < 400 | < 1000 |  |  | 
CSc1ccc(COC(=O)C2=C(C)NC(=S)NC2)s1 [Compound 217, 6-methyl-2-thioxo-1,2,3,4-tetrahydro-pyrimidine-5-carboxylic acid 5-methylsulfanyl-thiophen-2-ylmethyl ester] | 7000 | 1000 to 10000 |  |  | 
CC1=C(C(=O)OCc2ccccc2SCC(C)C)CNC(=S)N1 [Compound 111, 6-methyl-2-thioxo-1,2,3,4-tetrahydro-pyrimidine-5-carboxylic acid 2-isobutylsulfanyl-benzyl ester] | 2000 | 1000 to 10000 |  |  | 
